# Data published in US11110080B2, “Small molecule inhibitors of bacterial efflux pumps and methods of using same” (The Regents of the University of Colorado, a body Corporate, priority 2017, dated 2021).
# Entries after “also recorded” stand apart in the source; their conditions may differ.
# How the values were obtained:
# Assay type in all cases: cell-based, Salmonella enterica serovar Typhimurium
# [1] = system: extracellular S.Tm grown in MHB broth; assay: Broth activity assay (growth / MIC in Mueller Hinton Broth); conditions: Salmonella enterica, three Salmonella strains SL1344, MAR1, S10801
# Experimental: (§1) Overnight Salmonella cultures were washed 3 times in PBS and diluted to an OD of 0.01 in Mueller Hinton Broth in 96-well flat bottom plates. Compound was added using a pin tool (CyBio) or manually, yielding a final concentration of no more than 1% DMSO. Plates were grown at 37° C. shaking and OD600 was monitored using a BioTek Eon incubator shaker microplate absorbance reader. For experiments in defined media, bacteria were grown in M9 minimal media supplemented with 100 mM Tris pH 7.4, 0.35% glycerol, 0.002% histidine, 10 mM MgCl2, and 0.1% casamino acids. Where indicated, media was supplemented with 5 μg/ml polymyxin B or 0.2 mM H2O2. For experiments with LL-37, bacteria were grown in M9 minimal media supplemented with 0.4% dextrose, 0.004% histidine, 1 mM MgSO4, and 5 μg/ml LL-37. For checkerboard assays, MIC was defined as the concentration at which no growth was visually observed.
# S.Tm efflux pumps [2] = assay: Hoechst 33342 accumulation assay
# Experimental: Efflux pumps (EPs) represent a key pathogen virulence strategy to protect against host antimicrobials as well as therapeutic antibiotics. […] To uncover putative EPMs within our collection of hits, 58 repurchased compounds were screened in a Hoechst accumulation assay. Bacteria were incubated with Hoechst 33342, a dye which fluoresces when bound to DNA.
# Hoechst accumulation assays were performed essentially as described in the literature. Briefly, overnight Salmonella cultures were washed 3 times in PBS and diluted to an OD of 0.1 in PBS with 2.5 μM Hoechst 33342 in the presence of the indicated concentrations of compounds. Fluorescence was monitored on a Biotek Synergy 2 with a 360/40 nm excitation filter and 460/40 nm emission filter. The maximum Hoechst fluorescence over 60 minutes of incubation was normalized to the signal from the equivalent number of heat-killed bacteria, after subtraction of autofluroescent signal determined from compound incubated in the absence of bacteria. Curve fitting to determine EC50s was performed using GraphPad Prism.
# S.Tm efflux pumps [3] = assay: Nile Red efflux assay
# Description: Because Hoechst and other dyes commonly used to assess efflux bind cellular components, direct measurement of efflux is not possible using these methods; instead, the Hoechst assay measures dye accumulation, the net result of entry and efflux. Further, the slow off-rate of Hoechst entails that efflux pumps have no effect on dye already bound to DNA. As a result, compounds which increase Hoechst accumulation may actually enhance dye entry by altering porins or disrupting the membrane. To more specifically measure efflux pump activity, a second technique was employed using the dye Nile Red, a lipophilic membrane-partitioning dye which fluoresces in nonpolar environments. Because Nile Red is not known to bind cellular components, to directly observe efflux cells were preloaded with the dye in the absence of glucose to reduce efflux pump activity (FIG. 7A). Upon addition of glucose, bacteria rapidly effluxed Nile Red and fluorescence returned to baseline levels (FIG. 7B, top panel). […] The initial measured fluorescence was lower for DMSO-treated cells (upper dotted line) than for PAβN-treated cells due to glucose-independent efflux during sample preparation (FIG. 8A). Next, it was determined whether efflux pump activity is restored after removal of PAβN. Bacteria were incubated with compound for 15 minutes, pelleted and resuspended in buffer lacking compound, and then stimulated with glucose (FIGS. 7C, 7E).
# Nile Red assays were adapted from an established protocol. Briefly, overnight Salmonella cultures were grown in Mueller-Hinton cation-adjusted broth (Sigma), washed, and resuspended at an OD600 of 2.0. Cells were incubated in 10 μM Nile Red for 3 hours at 37° C. with aeration, then moved to room temperature for 1 hour. After pelleting at 2000× g, dye-loaded cells were aliquoted and combined with compound at the indicated concentrations. Two hundred microliters was loaded into 96-well black walled plates (Greiner) and read using a Varioskan Flash Multimode Reader with 540 nm excitation and 625 nm emission filters. We observed that during loading into plates (˜20 minutes), bacteria were able to efflux Nile Red even in the absence of glucose (FIG. 8A). To activate efflux, glucose was added to a final concentration of 2 mM. In some experiments, bacteria were treated with drug for 15 minutes, pelleted at 16,000×g, resuspended in fresh buffer, and stimulated with 2 mM glucose. All wash and incubation steps were performed in PBS with 1 mM MgCl2; incubations were performed in glass tubes to reduce adhesion of Nile Red.
# S.Tm = assay: Swimming assay in soft agar (proton motive force); conditions: 50 mM, 10 μl on disk (500×, 125×, ~62.5× the MIC for EPM30, EPM35, EPM43)
# Experimental: One way to inhibit efflux pumps is to disrupt the proton motive force, which is required for transport by some EPs. […] Bacteria were injected into the center of 0.25% agar plates, and 10 μl of compound was added to paper disks on the periphery. […] Also ampicillin and rifampicin were tested. We plotted the halo radius versus the concentration as the fold above the MIC (FIG. 9G). […] Next, it was determined whether PAβN inhibited swimming; PAβN is thought to disrupt membranes over long incubations. […] Finally, the EPMs at […] were tested (FIGS. 9D-F).
# Saturated overnight cultures were diluted to an OD600 of 0.01 in LB and 1 μL was injected into the center of low agar (0.25%) LB plates. Ten microliters of the indicated compounds were added to sterilized Whatman paper disks (diameter 0.7 cm) placed equidistant from the plate center.
# [4] = system: S.Tm wild-type SL1344, MAR1 and S10801; assay: microbe, parasite or virus in culture; conditions: MAR1 and S10801
# Experimental: Increased expression or function of efflux pumps often contributes to clinical multidrug resistance. Therefore, whether the EPMs re-sensitize two multidrug resistant strains of S.Tm to tetracycline was tested. Tetracycline is an antibiotic exported by AcrAB. The MAR1 strain is derived from wild-type SL1344 was selected by exposure to tetracycline, and has increased expression of the AcrAB efflux pump. S10801 is an MDR strain isolated from the mesenteric lymph node of a septic calf and is resistant to tetracycline, ampicillin, chloramphenicol, nalidixic acid, and triple sulfa. The basis of multi-drug resistance in this strain is unknown.
# as §1
# S.Tm efflux pumps [5] = assay: Nile Red efflux assay; conditions: 20 minutes incubation in 75 μM
smiles,measurement,setting,value
CC(C)c1nc(NC(=N)N)sc1Br [EPM30],MIC,[1],100 µM
same,Hoechst assay EC50 relative to PAβN,S.Tm efflux pumps [2],lower than that of PAβN
same,Hoechst accumulation / fluorescence,"S.Tm efflux pumps [2]; wild-type S.Tm, 60 minutes",increased S.Tm accumulation of Hoechst in a dose-dependent manner; also recorded: fluorescence comparable to that of PAβN
same,glucose-activated efflux of Nile Red,S.Tm efflux pumps [3]; 75 μM,fully inhibited efflux
same,Nile Red efflux after washout of compound,"S.Tm efflux pumps [3]; 15 minutes with compound, washed, then glucose",partially restored efflux; also recorded: partially restored Nile Red export
same,Nile Red fluorescence in the absence of glucose (basal loss),S.Tm efflux pumps [3]; no glucose,immediate reduction in fluorescence
same,halo in swimming assay,S.Tm,formed a halo
same,sensitivity of MDR S.Tm to tetracycline,[4],not
same,bacterial integrity and viability,S.Tm efflux pumps [5],remain intact and viable
